{
  "source": "patent US11911346B2",
  "about": "“Orally administrated therapeutic for treating mild cognitive impairment (MCI) and improving human cognitive function” (BrainCare LLC, priority 2021, dated 2024)",
  "key": {"[1]": {"system": "acute or chronic pain", "settings": "60 mg of BCP daily, by day 4; 31 participants; cited from earlier work"}, "[2]": {"system": "concentration and attention of participants with Subjective Cognitive Decline", "assay": "Cambridge Brain Sciences (CBS) Feature Match test", "assay_type": "in vivo, human", "settings": "for Feature Match actual score: Week 4, normal 87-113; for Feature Match percentage change: Week 8, over 8 weeks", "source_text": "(§1) The Cambridge Brain Sciences (CBS) included a battery of four tests to measure various aspects of cognition and that affected different regions of the brain. Normal scores for each test ranged from 87 to 113.\nThe fourth test is the Feature Match (aka Feature Selection), which addresses concentration and attention, and correlates well with aging. It can detect early Alzheimer's disease, and non-Alzheimer's dementia.\n(§2) The data are presented as mean±standard deviation (S.D.) at baseline, week 4, and week 8. Results from the Cognitive Failures Questionnaire and Cambridge Brain Sciences are compared using the Student's t-test in each intervention group between baseline and week 4 and between baseline and week 8. Significance was defined as p≤0.05. At each time point, the percentage change was compared with the values at baseline. This calculation was only obtained from the means between each time point, and the statistical analysis was not made on these percentage changes.\n(§3) For Cambridge Brain Sciences tests, some responses were flagged as being a highly unusual response (found in less than 1% of Cambridge Brain Sciences normative database). […] These scores were considered to be invalid and excluded from the final analysis. For each participant, the combined mean scores of all four CBS tests were summed for at baseline and at week 8. The participants were then grouped according to these mean baseline score of all four tests as: below average (less than or equal to 100) and average and above (greater than 100)."}, "[3]": {"system": "visuospatial and working memory of participants with Subjective Cognitive Decline", "assay": "Cambridge Brain Sciences (CBS) Monkey Ladder test", "assay_type": "in vivo, human", "settings": "for Monkey Ladder actual score: Week 4, normal 87-113", "source_text": "as §1\nThe third test is the Monkey Ladder, which relates visuospatial and working memory. The test can detect early Alzheimer's disease, non-Alzheimer's dementia, and age-related cognitive decline. The parts of the brain involved included: the mid-dorsolateral prefrontal cortex, premotor cortex, and posterior parietal cortex.\nas §2, §3"}, "[4]": {"system": "reasoning and planning of participants with Subjective Cognitive Decline", "assay": "Cambridge Brain Sciences (CBS) Spatial Planning test", "assay_type": "in vivo, human", "source_text": "as §1\nThe first test is the Spatial Planning test, which addresses reasoning and planning. It tests for non-Alzheimer's dementia but has a high correlation with aging. It has a high reproducibility and is useful to distinguish impaired and unimpaired populations. The parts of the brain implicated include: frontal lobe, mid-dorsolateral frontal cortex, caudate nucleus, thalamus, lateral premotor, and anterior cingulate.\nas §2, §3"}, "[5]": {"system": "salivary testosterone", "settings": "olfactory exposure to 3% BCP over 20 minutes, women with low libido; cited from earlier work"}, "[6]": {"settings": "one capsule daily (90 mg BCP), N=24"}, "[7]": {"settings": "two capsules daily (180 mg BCP), N=25"}, "[8]": {"settings": "two capsules daily (180 mg BCP)"}, "[9]": {"settings": "one capsule daily (90 mg BCP), N=23"}, "[10]": {"settings": "one capsule daily (90 mg BCP), Week 8, over 8 weeks"}, "[11]": {"settings": "one capsule daily (90 mg BCP), N=26"}},
  "data": [
    {"smiles": "C=C1CC/C=C(\\C)CC[C@@H]2[C@@H]1CC2(C)C", "note": "[BCP, beta-caryophyllene]", "values": [
      {"measurement": "% of participants reporting mitigation of pain", "setting": "[1]", "result": 60, "unit": "%"},
      {"measurement": "Feature Match: % of participants with no change between baseline and week 8", "setting": "[2]; [6]", "result": "(13%)"},
      {"measurement": "Feature Match: number of participants improved between baseline and week 8", "setting": "[2]; [6]", "result": 13},
      {"measurement": "Feature Match: number of participants with no change between baseline and week 8", "setting": "[2]; [6]", "result": 3},
      {"measurement": "Feature Match: number of participants worsened between baseline and week 8", "setting": "[2]; [6]", "result": 8},
      {"measurement": "Feature Match actual score", "setting": "[2]; one capsule daily (90 mg BCP)", "result": "98.3 ± 6.9"},
      {"measurement": "Feature Match percentage change", "setting": "[2]; one capsule daily (90 mg BCP)", "result": "+2.0%"},
      {"measurement": "Feature Match: % of participants with no change between baseline and week 8", "setting": "[2]; [7]", "result": "(16%)"},
      {"measurement": "Feature Match: number of participants improved between baseline and week 8", "setting": "[2]; [7]", "result": 10},
      {"measurement": "Feature Match: number of participants with no change between baseline and week 8", "setting": "[2]; [7]", "result": 4},
      {"measurement": "Feature Match: number of participants worsened between baseline and week 8", "setting": "[2]; [7]", "result": 11},
      {"measurement": "Feature Match actual score", "setting": "[2]; [8]", "result": "98.4 ± 7.6"},
      {"measurement": "Feature Match percentage change", "setting": "[2]; [8]", "result": "No change"},
      {"measurement": "Monkey Ladder: % of participants with no change between baseline and week 8", "setting": "[3]; [9]", "result": "(4%)"},
      {"measurement": "Monkey Ladder: number of participants improved between baseline and week 8", "setting": "[3]; [9]", "result": 16},
      {"measurement": "Monkey Ladder: number of participants with no change between baseline and week 8", "setting": "[3]; [9]", "result": 1},
      {"measurement": "Monkey Ladder: number of participants worsened between baseline and week 8", "setting": "[3]; [9]", "result": 6},
      {"measurement": "Monkey Ladder actual score", "setting": "[3]; one capsule daily (90 mg BCP)", "result": "103.8 ± 6.7"},
      {"measurement": "Monkey Ladder percentage change", "setting": "[3]; [10]", "result": "+2.5%"},
      {"measurement": "Monkey Ladder: % of participants with no change between baseline and week 8", "setting": "[3]; [7]", "result": "(28%)"},
      {"measurement": "Monkey Ladder: number of participants improved between baseline and week 8", "setting": "[3]; [7]", "result": 17},
      {"measurement": "Monkey Ladder: number of participants with no change between baseline and week 8", "setting": "[3]; [7]", "result": 7},
      {"measurement": "Monkey Ladder: number of participants worsened between baseline and week 8", "setting": "[3]; [7]", "result": 1},
      {"measurement": "Monkey Ladder actual score", "setting": "[3]; [8]", "result": "103.7 ± 8.1"},
      {"measurement": "Spatial Planning: % of participants with no change between baseline and week 8", "setting": "[4]; [11]", "result": "(8%)"},
      {"measurement": "Spatial Planning: number of participants improved between baseline and week 8", "setting": "[4]; [11]", "result": 19},
      {"measurement": "Spatial Planning: number of participants with no change between baseline and week 8", "setting": "[4]; [11]", "result": 2},
      {"measurement": "Spatial Planning: number of participants worsened between baseline and week 8", "setting": "[4]; [11]", "result": 5},
      {"measurement": "Spatial Planning actual score", "setting": "[4]; one capsule daily (90 mg BCP), Week 4, normal 87-113", "result": "104 ± 9"},
      {"measurement": "Spatial Planning percentage change", "setting": "[4]; [10]", "result": "+2.3%"},
      {"measurement": "Spatial Planning: % of participants with no change between baseline and week 8", "setting": "[4]; [7]", "result": "(8%)"},
      {"measurement": "Spatial Planning: number of participants improved between baseline and week 8", "setting": "[4]; [7]", "result": 18},
      {"measurement": "Spatial Planning: number of participants with no change between baseline and week 8", "setting": "[4]; [7]", "result": 2},
      {"measurement": "Spatial Planning: number of participants worsened between baseline and week 8", "setting": "[4]; [7]", "result": 5},
      {"measurement": "Salivary testosterone vs. control period", "setting": "[5]", "result": "increased"}
    ]}
  ]
}
